Experimental data published in patent US20250032573A1, “IMMUNITY-ENHANCING PEPTIDE ANALOGS AND USES THEREOF” (RESEARCH & BUSINESS FOUNDATION SUNGKYUNKWAN UNIVERSITY, priority 2023, published 2025).
Square brackets hold non-standard residues; d marks the D form. Peptide text beside a SMILES is read from it. Gly(N-4-hydroxybenzyl) = O=C(O)CNCc1ccc(O)cc1

Key:
[1] = tested on: neutrophils; test: Neutrophil chemotaxis assay using a Boyden chamber; format: cell-based
Protocol: To investigate the effect of the WKYMVm peptide analogs on the regulation of immune cell mobility, which a representative function of FPR, a chemotaxis assay was performed using a Boyden chamber.
To measure the in vitro innate immune activity of four peptides comprising one non-natural β^3-amino acid residue, the effect of enhancing neutrophil mobility was measured.

[2] = biological target: FPR1 (Homo sapiens, UniProt P21462); test: cell-based; conditions: FPR1-expressing RBL-2H3 cell line
Protocol: To investigate whether activation of FPR1, which is important in regulating the activity of innate immune cells, is induced by the WKYMVm peptide analogs, changes in calcium ions were measured in RBL-2H3 cell line, a type of mast cell that artificially expressed FPR1. […] On the other hand, an increase in intracellular calcium ions by WKYMVβm (V is a β-amino acid) through activation of FPR1 was not observed.

[3] = tested on: neutrophils; test: Degranulation activity of neutrophils (beta-hexosaminidase activity); format: cell-based
Protocol: The degranulation activity of neutrophils by the analogs in which each amino acid in the structure of WKYMVm was substituted with a β-amino acid was compared and analyzed by measuring beta-hexosaminidase activity.
The degranulation activity of neutrophils by the peptoid-containing analogs in which a peptoid residue was substituted for K, Y, and M in the structure of WKYMVm was measured.

[4] = biological target: FPR2 (Homo sapiens, UniProt P25090); test: cell-based; conditions: FPR2-expressing RBL-2H3 cell line
Protocol: To investigate whether activation of FPR2 is induced by the WKYMVm peptide analogs, changes in calcium ions were measured in RBL-2H3 cell line that artificially expressed FPR2.

[5] = tested on: neutrophils
[6] = tested on: neutrophils; test: Superoxide anion (ROS) production in neutrophils; format: cell-based
Protocol: The effect of superoxide anion production in neutrophils by the peptoid-comprising analogs in which a peptoid residue was substituted for K, Y, and M in the structure of WKYMVm was measured.

[7] = tested on: neutrophils isolated from mouse bone marrow; test: Cytokine secretion of neutrophils by ELISA, with or without LPS; format: cell-based; conditions: 1 μM
Protocol: Neutrophils regulate the activity of other immune cells through the production of various types of cytokines. To investigate the effect of the WKYMVm peptide analogs on regulating cytokine production in neutrophils, […], and 24 hours later, the supernatants were collected and subjected to an enzyme-linked immunosorbent assay (ELISA) to measure the amount of cytokine secretion.

[8] = FIG. 17
Excerpt: Table printed on a drawing sheet, FIG. 17

[9] = 【FIG 16】
Excerpt: Table printed on a drawing sheet, 【FIG 16】

Chain of FPR2 (P25090 whole entry): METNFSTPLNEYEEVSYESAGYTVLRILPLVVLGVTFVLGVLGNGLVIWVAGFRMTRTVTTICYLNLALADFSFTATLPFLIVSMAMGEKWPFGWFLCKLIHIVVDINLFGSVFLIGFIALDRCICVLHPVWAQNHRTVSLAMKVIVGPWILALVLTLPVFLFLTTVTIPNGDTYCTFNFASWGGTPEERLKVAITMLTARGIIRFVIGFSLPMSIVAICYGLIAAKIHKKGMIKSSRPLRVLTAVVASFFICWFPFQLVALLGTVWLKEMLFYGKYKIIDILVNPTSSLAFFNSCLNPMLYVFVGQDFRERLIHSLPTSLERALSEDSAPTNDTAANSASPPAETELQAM
Chain of FPR1 (P21462 whole entry): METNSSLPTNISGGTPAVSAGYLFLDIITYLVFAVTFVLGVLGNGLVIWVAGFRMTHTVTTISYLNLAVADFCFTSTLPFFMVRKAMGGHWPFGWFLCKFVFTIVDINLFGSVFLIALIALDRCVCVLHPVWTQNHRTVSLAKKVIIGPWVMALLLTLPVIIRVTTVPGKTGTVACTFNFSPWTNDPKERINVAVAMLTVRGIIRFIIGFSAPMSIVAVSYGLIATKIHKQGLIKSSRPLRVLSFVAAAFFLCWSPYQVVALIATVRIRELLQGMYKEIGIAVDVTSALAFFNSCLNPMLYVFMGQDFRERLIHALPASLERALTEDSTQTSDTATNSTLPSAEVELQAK

Compound | effect of enhancing neutrophil mobility, compared with the WKYMVm peptide [1] | neutrophil mobility at 1 μM ([1]; 1 μM) | neutrophil mobility at a low concentration ([1]; low concentration) | increase in intracellular calcium ions through activation of FPR1 (in words) [2] | degranulation activity of neutrophils [3] | increase in intracellular calcium ions through activation of FPR2 (in words) [4] | calcium ion-increasing effect in neutrophils [5] | superoxide anion production in neutrophils [6] | effect in regulating the neutrophil activity (LPS-induced cytokines) [7] | Half-Life [8] [h] | Half-Life [9] [h]
CSCC[C@H](NC(=O)[C@H](Cc1ccc(O)cc1)NC(=O)[C@H](CCCCN)NC(=O)[C@@H](N)Cc1c[nH]c2ccccc12)C(=O)N[C@H](CC(=O)N[C@H](CCSC)C(N)=O)C(C)C [WKYMVβm] | weak activity only at high concentrations | highly active neutrophil mobility promotion effect was induced | not promoted | not observed | did not induce the degranulation activity of neutrophils | not observed | not exhibited | did not induce superoxide anion production | minimal effect | – | –
CSCC[C@H](NC(=O)CN(Cc1ccc(O)cc1)C(=O)[C@H](CCCCN)NC(=O)[C@@H](N)Cc1c[nH]c2ccccc12)C(=O)N[C@H](C(=O)N[C@H](CCSC)C(N)=O)C(C)C [Y peptoid] (H-WK[Gly(N-4-hydroxybenzyl)]MV[dM]-NH2) | – | – | – | – | promoted the degranulation activity of neutrophils to the extent similar to the WKYMVm peptide | – | – | effectively promote superoxide anion production | – | 1.1 | –
WKYMVm (W) | – | – | – | – | – | – | – | – | – | 2.0 | 2.6
